The record followed here is US5034544A, “Antiviral 2,3-bis-(aryl)-3-chloropropenal compounds” (priority 1989, dated 1991).

Data set [1] has as its system human immunodeficiency virus (HIV). The experiment in a line: microbe, parasite or virus in culture. How it is done:
(§1) The assay basically involves the killing of T4 lymphocytes by HIV in cell cultures. Small amounts of HIV are added to cells, and at least two complete cycles of virus reproduction are necessary to obtain the required killing. Agents which interact with virions, cells, or virus gene-products to interfere with viral activities will protect cells from cytolysis. All tests are compared with a positive control done at the same time under identical conditions. The positive control in these experiments was AZT.
(§2) Harvest experiments were conducted in which HIV infected cell cultures were post-treated with the compound of Example 1 at a number of concentrations. T4 lymphocytes (CEM cell line) are exposed to HIV at a virus to cell ratio approximately 0.05, and plated along with noninfected control cells in 96-well microtiter plates. 2,3-Bis-(3,4-dimethoxyphenyl)-3-chloropropenal was dissolved in dimethyl sulfoxide, then diluted 1:200 in cell culture medium. Further dilutions (half-log10) are prepared before adding to an equal volume of medium containing either infected or noninfected cells. Plates are incubated at 37° C. in a 5% carbon dioxide atmosphere for 6 days. Triphenyl tetrazolium chloride (1% weight by volume) is added to each well and cultures are further incubated to allow color development of viable cells. Individual wells are analyzed spectrophotometrically to quantitate color production and are viewed microscopically for detection of viable cells and confirmation of protective activity. Drug-treated virus-infected cells are compared with drug-treated noninfected cells and other appropriate controls (untreated infected and untreated noninfected cells, drug-containing wells without cells, etc.) on the same plate. Data are reviewed in comparison with other tests done at the same time, and a determination about antiviral activity is made.
(§3) The solid line connecting the diamond symbols depicts the percentage of surviving HIV-infected cells treated with the present test sample at the indicated concentration relative to uninfected, untreated controls. This line represents the in-vitro anti-HIV activity of the sample. The dashed line connecting the square symbols depicts the percentage of surviving uninfected cells treated with the present compound relative to the same uninfected, untreated controls. This line represents the in-vitro growth inhibitory properties. The viral cytopathic effect in this experiment is indicated by a dotted reference line. This line show the extent of destruction of cells by the virus in the absence of treatment and is used as a quality control parameter. Values of this parameter […] 50% are considered acceptable in the current protocol. Reference line at 50% is depicted as alternating dots and dashes.

Data set [2] has as its system T4 lymphocytes (CEM cell line). The experiment in a line: in-vitro growth inhibition / cytotoxicity in noninfected T4 lymphocytes (UNINFECTED CULTURE). The data set is classed as cell-based. Particulars: for IC50: Homo sapiens, CCRF-CEM, uninfected CEM cells; for Response (%), uninfected culture (surviving uninfected cells, % of uninfected untreated control): 6 days, Tables 1-3 = separate experiments, 8640 min; for cytotoxicity to uninfected cells (in words): visual / microscopic. How it is done:
as §1, §2, §3
(§4) Also, every attempt was made to reduce variability in the assay procedure set forth hereinabove and the values for EC50, IC50 and Therapeutic Index (TI) were determined within experimental limitations.

Experiment in data set [3]: as above
The data set is classed as cell-based. To be noted: human, cem cells, 6 days, Table 4, read-out: Response (%), uninfected culture (surviving uninfected cells, % of uninfected untreated control). How it is done: as §1, §2, §3, §4

Setting [4] is: Human immunodeficiency virus 1, CCRF-CEM, in Homo sapiens, 144 h, read-out: Response (%), infected culture (surviving HIV-infected cells, % of uninfected untreated control).

“And” between values parts separate entries of the source, which are not always exact repeats. Identical values can stand only once. Like-named read-outs stand apart in the source and are kept apart here.

For `COc1ccc(C(Cl)=C(C=O)c2ccc(OC)c(OC)c2)cc1OC` [Example 1, 2,3-Bis-(3,4-Dimethoxyphenyl)-3-Chloropropenal], in data set [1], the “selectivity compared to AZT (in words)” value was “pronounced at the reported concentrations” and the “selectivity, infected vs. uninfected cells (in words)” value is “selective, exhibiting toxicity to infected cells, yet not toxic towards normal cells or cells free of virus”. In addition, in data set [1] (setting [4]), the viability at 0.0266 µg/mL was found to be 6.9%, the viability at 0.0733 µM was determined as 18.5%, the viability at 0.084 µg/mL came to 6.8% and the viability at 0.231 µM came to 18%. In data set [1] (setting [4]), the viability at 0.265 µg/mL amounted to 5.4%, the viability at 0.266 µg/mL was 8.2%, the viability at 0.732 µM was determined as 18.8% and the viability at 0.839 µg/mL worked out at 7.2%. In data set [1] (setting [4]), the viability at 2.31 µM was determined as 19.9%, the viability at 2.65 µg/mL was 6.6%, the viability at 7.31 µM turned out to be 60.2% and the viability at 23.1 µM is 79.5%. Besides, in data set [1] (setting [4]), the viability at 26.4 µg/mL stood at 84.6%, the viability at 73 µM stood at 76.2%, the viability at 83.7 µg/mL is 94.8% and the viability at 230 µM is 75.4%. In data set [1] (Human immunodeficiency virus 1, CCRF-CEM, read-out: EC50 (effective kill concentration for 50% of the experimental virus)), the EC50 is around 15.6 µg/mL. The EC50 in data set [1] (Human immunodeficiency virus 1, CCRF-CEM, read-out: EC50 (molar value)) came out at 5.45 µM. Further, the “TI50 (therapeutic index)” value in data set [1] (human, cem cells, 8640 min) is > 4.22×10^+1. Besides, the IC50 in data set [2] (FIG. 1 / Table 1 experiment, read-out: IC50 (inhibition concentration required for 50% of cell growth)) is above 83.7 µg/mL. In addition, the IC50 in data set [2] (FIG. 4 / Table 4 experiment, read-out: IC50 (molar value), cell growth) is above 230 µM. Also, the “Response (%), uninfected culture (surviving uninfected cells, % of uninfected untreated control)” value (from here on “Response (%), uninfected culture”) in data set [2] (dose 2.64 × 10^+1 μg/ml) was 112.4% and 109.3% and 115.9%. Also, the “Response (%), uninfected culture” value in data set [2] (dose 2.65 × 10^+0 μg/ml) was 103.5% and 106.3% and 108.3%. Moreover, the “Response (%), uninfected culture” value in data set [2] (dose 2.65 × 10^-1 μg/ml) is 102.7% and 99.7% and 103.4%. The “Response (%), uninfected culture” value in data set [2] (dose 2.66 × 10^-2 μg/ml) was 99.2% and 104.4%. For the same molecule, the “Response (%), uninfected culture” value in data set [2] (dose 8.37 × 10^+1 μg/ml) is 112.2% and 91.9% and 114.3%. Besides, the “Response (%), uninfected culture” value in data set [2] (dose 8.38 × 10^+0 μg/ml) is 106.0% and 103.1% and 113.1%. Further, the “Response (%), uninfected culture” value in data set [2] (dose 8.39 × 10^-1 μg/ml) was 105.6% and 101.2% and 107.0%. Also, the “Response (%), uninfected culture” value in data set [2] (dose 8.40 × 10^-2 μg/ml) is 104.5% and 103.1% and 99.6%. In data set [2] (uninfected culture, Tables 1-4), the “cell growth in uninfected culture (in words)” value is “cell growth actually increased in most of these test results”. In addition, the “cytotoxicity to uninfected cells (in words)” value in data set [2] (uninfected culture) was “no significant visual or microscopic cytotoxicity was observed in the uninfected culture”. Besides, the viability at 144 h, 230 µM in data set [3] (dose 2.30 × 10^-4 Molar) is 77.3%. For the same molecule, the viability at 144 h, 23.1 µM in data set [3] (dose 2.31 × 10^-5 Molar) worked out at 90.2%. Besides, the viability at 144 h, 2.31 µM in data set [3] (dose 2.31 × 10^-6 Molar) turned out to be 92.7%. Further, in data set [3] (dose 2.31 × 10^-7 Molar), the viability at 144 h, 0.231 µM worked out at 104%. In data set [3] (dose 7.30 × 10^-5 Molar), the viability at 144 h, 73 µM was 83.5%. Further, in data set [3] (dose 7.31 × 10^-6 Molar), the viability at 144 h, 7.31 µM amounted to 94.3%. Further, the viability at 144 h, 0.732 µM in data set [3] (dose 7.32 × 10^-7 Molar) is 96.5%. The viability at 144 h, 0.0733 µM in data set [3] (dose 7.33 × 10^-8 Molar) was found to be 101%.

As for `O=CC(=C(Cl)c1ccc2c(c1)OCO2)c1ccc2c(c1)OCO2` [Example 3, 2,3-Bis-(3,4-Methylenedioxyphenyl)-3-Chloropropenal], in data set [1], the “anti-HIV activity in cell culture (in words)” value is listed as “produced mixed results under the experimental assay procedure reported hereinabove, the results clearly indicated antiviral activity” and the “antiviral activity relative to 2,3-bis-(3,4-dimethoxyphenyl)-3-chloropropenal (in words)” value is on record as “significantly less than that of the structurally analogous test compound”.

On to `COc1ccc(C(Cl)=C(C=O)c2ccc(OC)cc2)cc1` [2,3-di-(4-methoxyphenyl)-3-chloro-acrylaldehyde, reference compound], for which, in data set [1], the “anti-HIV activity in cell culture (in words)” value is “found unacceptable for further preclinical consideration”.

Turning to `Cc1cn([C@H]2C[C@H](N=[N+]=[N-])[C@@H](CO)O2)c(=O)[nH]c1=O` [AZT, azidothymidine, reference compound], the “cytotoxicity to uninfected cells (in words)” value in data set [2] (uninfected culture) is recorded as “exhibited microscopic cytotoxicity to uninfected cells”.
